Test results as given in ChEMBL document CHEMBL4011590, “Structure-activity relationship studies on 3,5-dinitrophenyl tetrazoles as antitubercular agents” (Eur J Med Chem, 2017).
Converted amounts (≈) assume the structure as drawn.

Legend:
[1] = system: Enterococcus sp.; test: Antibacterial activity against Enterococcus sp. HK14365/08 after 24 hrs by broth microdilution method; assay type: functional; conditions: HK14365/08, 24 h
[2] = system: Pseudomonas aeruginosa; test: Antibacterial activity against Pseudomonas aeruginosa ATCC 9027 after 48 hrs by broth microdilution method; assay type: functional; conditions: ATCC 9027, 48 h
[3] = system: Candida albicans; test: Antifungal activity against Candida albicans ATCC 44859 after 24 hrs by broth microdilution method; assay type: functional; conditions: ATCC 44859, 24 h
[4] = system: Mycobacterium kansasii; test: Antimycobacterial activity against Mycobacterium kansasii CNCTC My 235/80 after 21 days by micromethod; assay type: functional; conditions: CNCTC My 235/80, 504 h
[5] = system: Aspergillus fumigatus; test: Antifungal activity against Aspergillus fumigatus 231 after 48 hrs by broth microdilution method; assay type: functional; conditions: Aspergillus fumigatus, 231, 48 h
[6] = system: Lichtheimia corymbifera; test: Antifungal activity against Absidia corymbifera 272 after 24 hrs by broth microdilution method; assay type: functional; conditions: Lichtheimia corymbifera, 272, 24 h
[7] = system: Mycobacterium avium; test: Antimycobacterial activity against Mycobacterium avium CNCTC My 330/80 after 21 days by micromethod; assay type: functional; conditions: CNCTC My 330/80, 504 h
[8] = system: Staphylococcus aureus; test: Antibacterial activity against Staphylococcus aureus ATCC 6538 after 48 hrs by broth microdilution method; assay type: functional; conditions: ATCC 6538, 48 h
[9] = system: Mycobacterium tuberculosis; test: Antimycobacterial activity against Mycobacterium tuberculosis H37Rv CNCTC My 331/88 after 21 days by micromethod; assay type: functional; conditions: H37Rv CNCTC My 331/88, 504 h
[10] = system: Mycobacterium kansasii; test: Antimycobacterial activity against Mycobacterium kansasii isolate 6509/96 after 7 days by micromethod; assay type: functional; conditions: isolate 6509/96, 168 h
[11] = system: Mycobacterium kansasii; test: Antimycobacterial activity against Mycobacterium kansasii isolate 6509/96 after 21 days by micromethod; assay type: functional; conditions: isolate 6509/96, 504 h
[12] = system: Staphylococcus aureus; test: Antibacterial activity against methicillin-resistant Staphylococcus aureus HK5996/08 after 24 hrs by broth microdilution method; assay type: functional; conditions: HK5996/08, 24 h
[13] = system: Trichophyton mentagrophytes; test: Antifungal activity against Trichophyton mentagrophytes 445 after 72 hrs by broth microdilution method; assay type: functional; conditions: Trichophyton mentagrophytes, 445, 72 h
[14] = system: Klebsiella pneumoniae; test: Antibacterial activity against Klebsiella pneumoniae HK11750/08 after 24 hrs by broth microdilution method; assay type: functional; conditions: HK11750/08, 24 h
[15] = system: Trichosporon asahii; test: Antifungal activity against Trichosporon asahii 1188 after 24 hrs by broth microdilution method; assay type: functional; conditions: Trichosporon asahii, 1188, 24 h
[16] = system: Mycobacterium tuberculosis; test: Antimycobacterial activity against Mycobacterium tuberculosis H37Rv CNCTC My 331/88 after 14 days by micromethod; assay type: functional; conditions: H37Rv CNCTC My 331/88, 336 h
[17] = system: Enterococcus sp.; test: Antibacterial activity against Enterococcus sp. HK14365/08 after 48 hrs by broth microdilution method; assay type: functional; conditions: HK14365/08, 48 h
[18] = system: Mycobacterium avium; test: Antimycobacterial activity against Mycobacterium avium CNCTC My 330/80 after 14 days by micromethod; assay type: functional; conditions: CNCTC My 330/80, 336 h
[19] = system: Candida albicans; test: Antifungal activity against Candida albicans ATCC 44859 after 48 hrs by broth microdilution method; assay type: functional; conditions: ATCC 44859, 48 h
[20] = system: Lichtheimia corymbifera; test: Antifungal activity against Absidia corymbifera 272 after 48 hrs by broth microdilution method; assay type: functional; conditions: Lichtheimia corymbifera, 272, 48 h
[21] = system: Staphylococcus epidermidis; test: Antibacterial activity against Staphylococcus epidermidis HK6966/08 after 48 hrs by broth microdilution method; assay type: functional; conditions: HK6966/08, 48 h
[22] = system: Staphylococcus aureus; test: Antibacterial activity against Staphylococcus aureus ATCC 6538 after 24 hrs by broth microdilution method; assay type: functional; conditions: ATCC 6538, 24 h
[23] = system: Escherichia coli; test: Antibacterial activity against Escherichia coli ATCC 8739 after 48 hrs by broth microdilution method; assay type: functional; conditions: ATCC 8739, 48 h
[24] = system: Trichosporon asahii; test: Antifungal activity against Trichosporon asahii 1188 after 48 hrs by broth microdilution method; assay type: functional; conditions: Trichosporon asahii, 1188, 48 h
[25] = system: Staphylococcus epidermidis; test: Antibacterial activity against Staphylococcus epidermidis HK6966/08 after 24 hrs by broth microdilution method; assay type: functional; conditions: HK6966/08, 24 h
[26] = system: Staphylococcus aureus; test: Antibacterial activity against methicillin-resistant Staphylococcus aureus HK5996/08 after 48 hrs by broth microdilution method; assay type: functional; conditions: HK5996/08, 48 h
[27] = system: Escherichia coli; test: Antibacterial activity against Escherichia coli ATCC 8739 after 24 hrs by broth microdilution method; assay type: functional; conditions: ATCC 8739, 24 h
[28] = system: Mycobacterium kansasii; test: Antimycobacterial activity against Mycobacterium kansasii isolate 6509/96 after 14 days by micromethod; assay type: functional; conditions: isolate 6509/96, 336 h
[29] = system: Klebsiella pneumoniae; test: Antibacterial activity against extended spectrum beta-lactamase producing Klebsiella pneumoniae HK14368/08 after 48 hrs by broth microdilution method; assay type: functional; conditions: HK14368/08, 48 h
[30] = system: CHO-K1; test: Cytotoxicity against CHOK1 cells after 24 hrs by MTT assay; assay type: cell-based; conditions: Cricetulus griseus, CHO-K1, 24 h
[31] = system: Mycobacterium kansasii; test: Antimycobacterial activity against Mycobacterium kansasii CNCTC My 235/80 after 7 days by micromethod; assay type: functional; conditions: CNCTC My 235/80, 168 h
[32] = system: Aspergillus fumigatus; test: Antifungal activity against Aspergillus fumigatus 231 after 24 hrs by broth microdilution method; assay type: functional; conditions: Aspergillus fumigatus, 231, 24 h
[33] = system: Nakaseomyces glabratus; test: Antifungal activity against Candida glabrata 20/I after 24 hrs by broth microdilution method; assay type: functional
[34] = system: Candida tropicalis; test: Antifungal activity against Candida tropicalis 156 after 24 hrs by broth microdilution method; assay type: functional; conditions: Candida tropicalis, 156, 24 h
[35] = system: Pseudomonas aeruginosa; test: Antibacterial activity against Pseudomonas aeruginosa ATCC 9027 after 24 hrs by broth microdilution method; assay type: functional; conditions: ATCC 9027, 24 h
[36] = system: Trichophyton mentagrophytes; test: Antifungal activity against Trichophyton mentagrophytes 445 after 120 hrs by broth microdilution method; assay type: functional; conditions: Trichophyton mentagrophytes, 445, 120 h
[37] = system: Klebsiella pneumoniae; test: Antibacterial activity against extended spectrum beta-lactamase producing Klebsiella pneumoniae HK14368/08 after 24 hrs by broth microdilution method; assay type: functional; conditions: HK14368/08, 24 h
[38] = system: Nakaseomyces glabratus; test: Antifungal activity against Candida glabrata 20/I after 48 hrs by broth microdilution method; assay type: functional
[39] = system: Klebsiella pneumoniae; test: Antibacterial activity against Klebsiella pneumoniae HK11750/08 after 48 hrs by broth microdilution method; assay type: functional; conditions: HK11750/08, 48 h
[40] = system: Pichia kudriavzevii; test: Antifungal activity against Candida krusei E28 after 24 hrs by broth microdilution method; assay type: functional; conditions: E28, 24 h
[41] = system: Candida tropicalis; test: Antifungal activity against Candida tropicalis 156 after 48 hrs by broth microdilution method; assay type: functional; conditions: Candida tropicalis, 156, 48 h
[42] = system: Mycobacterium kansasii; test: Antimycobacterial activity against Mycobacterium kansasii CNCTC My 235/80 after 14 days by micromethod; assay type: functional; conditions: CNCTC My 235/80, 336 h
[43] = system: Pichia kudriavzevii; test: Antifungal activity against Candida krusei E28 after 48 hrs by broth microdilution method; assay type: functional; conditions: E28, 48 h

Question: For `O=[N+]([O-])c1cc(-c2nnn(Cc3cccc(Cl)c3)n2)cc([N+](=O)[O-])c1`, which MIC [1] is on record?
Answer: Its MIC is > 500 µM.

Question: And the MIC [2]?
Answer: Its MIC is > 500 µM.

Question: What about the MIC [3] of the same compound?
Answer: The MIC was > 500 µM.

Question: And the MIC99 [4]?
Answer: Its MIC99 is 2 µM (≈ 0.721 µg/mL).

Question: And the MIC [5]?
Answer: Its MIC is > 500 µM.

Question: What about the MIC [6] of the same compound?
Answer: Its MIC is > 500 µM.

Question: What about the MIC99 [7] of the same compound?
Answer: The MIC99 was 8 µM (≈ 2.89 µg/mL).

Question: What about the MIC [8] of the same compound?
Answer: The MIC was > 500 µM.

Question: What about the MIC99 [9] of the same compound?
Answer: Its MIC99 is 0.5 µM (≈ 0.18 µg/mL).

Question: What about the MIC99 [10] of the same compound?
Answer: Its MIC99 is 0.5 µM (≈ 0.18 µg/mL).

Question: What about the MIC99 [11] of the same compound?
Answer: The MIC99 was 2 µM (≈ 0.721 µg/mL).

Question: What about the MIC [12] of the same compound?
Answer: Its MIC is > 500 µM.

Question: And the MIC [13]?
Answer: The MIC was > 500 µM.

Question: What about the MIC [14] of the same compound?
Answer: Its MIC is > 500 µM.

Question: And the MIC [15]?
Answer: Its MIC is > 500 µM.

Question: And the MIC99 [16]?
Answer: Its MIC99 is 0.5 µM (≈ 0.18 µg/mL).

Question: What about the MIC [17] of the same compound?
Answer: Its MIC is > 500 µM.

Question: What about the MIC99 [18] of the same compound?
Answer: Its MIC99 is 4 µM (≈ 1.44 µg/mL).

Question: What about the MIC [19] of the same compound?
Answer: Its MIC is > 500 µM.

Question: What about the MIC [20] of the same compound?
Answer: Its MIC is > 500 µM.

Question: What about the MIC [21] of the same compound?
Answer: Its MIC is > 500 µM.

Question: And the MIC [22]?
Answer: Its MIC is > 500 µM.

Question: What about the MIC [23] of the same compound?
Answer: Its MIC is > 500 µM.

Question: What about the MIC [24] of the same compound?
Answer: Its MIC is > 500 µM.

Question: And the MIC [25]?
Answer: Its MIC is > 500 µM.

Question: And the MIC [26]?
Answer: The MIC was > 500 µM.

Question: What about the MIC [27] of the same compound?
Answer: The MIC was > 500 µM.

Question: What about the MIC99 [28] of the same compound?
Answer: Its MIC99 is 1 µM (≈ 0.361 µg/mL).

Question: What about the MIC [29] of the same compound?
Answer: The MIC was > 500 µM.

Question: What about the IC50 [30] of the same compound?
Answer: Its IC50 is 27 µM.

Question: What about the MIC99 [31] of the same compound?
Answer: The MIC99 was 1 µM (≈ 0.361 µg/mL).

Question: What about the MIC [32] of the same compound?
Answer: Its MIC is > 500 µM.

Question: And the MIC [33]?
Answer: The MIC was > 500 µM.

Question: What about the MIC [34] of the same compound?
Answer: The MIC was > 500 µM.

Question: What about the MIC [35] of the same compound?
Answer: The MIC was > 500 µM.

Question: What about the MIC [36] of the same compound?
Answer: The MIC was > 500 µM.

Question: And the MIC [37]?
Answer: Its MIC is > 500 µM.

Question: What about the MIC [38] of the same compound?
Answer: The MIC was > 500 µM.

Question: What about the MIC [39] of the same compound?
Answer: The MIC was > 500 µM.

Question: And the MIC [40]?
Answer: Its MIC is > 500 µM.

Question: What about the MIC [41] of the same compound?
Answer: The MIC was > 500 µM.

Question: What about the MIC99 [42] of the same compound?
Answer: Its MIC99 is 2 µM (≈ 0.721 µg/mL).

Question: And the MIC [43]?
Answer: The MIC was > 500 µM.
